The record followed here is US12310967B2, “Compositions and methods of treatment for neurological disorders comprising motor neuron diseases” (Gliapharm SA, priority 2017, dated 2025).

Each structure is given as a SMILES string.

In assay [1] the test system is primary astrocytes. The assay is described as follows: High throughput screening (HTS) for lactate secretion: acidification of extracellular medium (SNARF5). Type of assay: cell-based, mouse. More on the design: key to Score / HTS Score (SNARF5) / Score_SNARF: fraction of plate positive-control activity (1 = 100%). The following applies: for Score / Score_SNARF: Appendix I; for Score: CDC54K primary screening, relative to CCCP 2 uM; for Score / HTS Score (SNARF5): 10 uM, 90 min; for Score_SNARF: primary screening confirmation (SNARF5); for HTS Score (SNARF5): CDC54K library, relative to positive control CCCP 2 uM. The method, boiled down: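 Mouse primary cortical astrocytes (DIV17) exposed to compounds at 10 uM final (1% DMSO) for 90 min in low-bicarbonate medium with SNARF-5F. Extracellular pH from 630/580 nm emission ratio (ex 480 nm); hits scored as % of CCCP 2 uM positive control, duplicate plates.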

Assay [2] has as its system primary astrocytes. Put plainly: Intracellular glycogen quantification. Type of assay: cell-based, mouse. Particulars: CDC54K hits, 10 μM, 3 h. As for the experimental part:
For glycogen dosage, a protein dosage was first performed in order to assess whether harvested astrocytes from primary cell cultures yielded enough and equivalent amounts of proteins comparing each replicate, and to ensure that the obtained differences in glycogen quantities were due to drug action and not to inner protein quantities.
Astrocytes used for these dosages were previously grown in 6-well plates for 17 days and stimulated with Vehicle (DMSO) or drug of interest (1 μM to 100 μM) for 180 min, at 37° C. 5% CO2/95% air in D5030 complete medium. Medium was removed and replaced with 600 μl of 30 mM Tris HCl, and stored at −20° C.
Proteins were dosed using the micro BCA Protein Assay kit (Thermo Scientific), as described in the manufacturer's instructions. Briefly, thawed cells were sonicated and 5 μl aliquots were placed in a transparent 96-well plate, to which we added 25 μl 30 mM Tris HCl, 70 μl H2O and 100 μl of a BCA mix (made as described in manufacturer's guidelines). After a 120 min-incubation at 37° C., absorbance was measured with Safire 2 spectrophotometer at a wavelength of 562 nm, and protein quantities were determined from a standard curve of Bovine Serum Albumin (BSA).
Glycogen was quantified using a 250 μl-aliquot of the same stimulated, thawed, and sonicated cells. After an incubation period of 30 min at 90° C. and 400 rpm, 28 μl of an acetic acid/sodium acetate (both from Sigma) 0.1M pH 4.6 buffer was added to each aliquot, which was then separated in two. Each split aliquot received whether 5 μl of amyloglucosidase (Roche) or 5 μl H2O, and all cell solutions were incubated for 120 min in a shaking 37° C.-waterbath. After a centrifugation at 16'000G for 5 min, 20 μl of supernatant were placed 96-well plate, to which 150 μl of a mix containing 0.67 mM ATP (Roche), 0.67 mM NADP (Roche), 1.8% hexokinase/glucose-6-phosphate dehydrogenase (Roche) and 0.1M Tris Buffer-HCl/3.3 mM magnesium (Fluka)/pH 8.1 buffer was added. Fluorescence was measured with Safire 2 spectrophotometer (340 nm excitation/440 nm emission). Glycogen concentration was obtained by substracting glucose value of samples with amyloglucosidase to samples without amyloglucosidase, and were expressed relative to the amount of proteins previously determined.
Levels of intracellular glycogen in astrocytes were measured at 3 h after stimulation with 20 Hits from the Prestwick library (10 μM each), as shown in FIG. 2. n=6-10; Ctrl pos. is glutamate (0.5 mM). Statistical analysis consisted in ANOVA followed by Fisher LSD post-hoc test for pair-wise comparisons.
Statistical analysis consisted in ANOVA followed by Fisher LSD post-hoc test for pair-wise comparisons.

Turning to `Cc1ccccc1NC(=O)C1CCCN(c2ncnc3oc(C)c(C)c23)C1` (stereo not drawn) [F228-0422], in the assay on primary astrocytes [1], the Score was 1.057, the Score_SNARF came to 0.7702 and the “HTS Score (SNARF5)” value was 1.058. Moreover, the “Glycogen (statistical significance of glycogen degradation)” value in the assay on primary astrocytes [2] is “** (** p<0.01)”.
Consider `CCc1nc(-c2csc(S(=O)(=O)NCc3ccc4c(c3)OCO4)c2)no1` [L287-0468], for which, in the assay with primary astrocytes [1], the Score was determined as 0.5971, the Score_SNARF turned out to be 0.6592 and the “HTS Score (SNARF5)” value is 0.597. Besides, the “Glycogen (statistical significance of glycogen degradation)” value with primary astrocytes [2] is “** (** p<0.01)”.
Taken in the same sequence, the figures for `CCn1nccc1-c1csc(S(=O)(=O)Nc2ccc(Cl)cc2F)c1` [L924-1031] were 0.9286, 0.8713, 0.929 and “** (** p<0.01)”.
In the same order, the values of `CSc1cccc(NS(=O)(=O)c2ccc3onc(C(=O)N4CCCC4)c3c2)c1` [L995-0125] are 0.8545, 0.8016, 0.854 and “ns”.
Taken in the same sequence, the figures for `CC(=O)N1CCc2sc(S(=O)(=O)N3CCN(c4ccccc4C)CC3)cc2C1` [P025-0159] were 0.9535, 0.8007, 0.953 and “ns”.
Consider `c1ccc2c(c1)CCN(c1ncnc3sccc13)C2` [T0517-8250], for which the Score_SNARF in the assay with primary astrocytes [1] is 0.9124. Besides, the “Glycogen (statistical significance of glycogen degradation)” value in the assay with primary astrocytes [2] is listed as “ns”.
As to `N#Cc1ccc(C(=O)N2CCC(Nc3ncnc4c3CCC4)C2)cc1` (stereo not drawn) [T636-2387], in the assay on primary astrocytes [1], the Score_SNARF was found to be 0.4809 and the “HTS Score (SNARF5)” value is reported as 0.445. For the same molecule, the “Glycogen (statistical significance of glycogen degradation)” value in the assay with primary astrocytes [2] is “ns”.
In the case of `CCc1ccc(S(=O)(=O)N2CCSC2c2ccc(OC)c(OC)c2)cc1` (stereo not drawn) [T5463586], in the assay with primary astrocytes [1], the Score is given as 0.7707, the Score_SNARF was found to be 0.5553 and the “HTS Score (SNARF5)” value is 0.77. Moreover, the “Glycogen (statistical significance of glycogen degradation)” value in the assay on primary astrocytes [2] was “*** (*** p<0.001)”.
Taken in the same sequence, the figures for `COc1cc(C)c(Cl)cc1S(=O)(=O)NCc1ccncc1` [T5580243] were 0.8528, 0.8565, 0.853 and “ns”.
As to `CCc1ccc(S(=O)(=O)Nc2ccc3[nH]ncc3c2)cc1` [T5599014], in the assay on primary astrocytes [1], the Score stood at 0.5424, the Score_SNARF is 0.5778 and the “HTS Score (SNARF5)” value is 0.542. The “Glycogen (statistical significance of glycogen degradation)” value in the assay with primary astrocytes [2] is on record as “ns”.
Taken in the same sequence, the figures for `O=C1CCCN1c1ccc(S(=O)(=O)Nc2cccc(/C=C/c3ccccn3)c2)cc1` [T5644989] were 0.6796, 0.8385, 0.68 and “** (** p<0.01)”.
In the case of `Cc1nc2ccc(NS(=O)(=O)c3cccc(F)c3)cc2s1` [T6937001], in the assay on primary astrocytes [1], the Score was 0.8094, the Score_SNARF was determined as 0.8557 and the “HTS Score (SNARF5)” value turned out to be 0.809. Also, the “Glycogen (statistical significance of glycogen degradation)” value in the assay with primary astrocytes [2] was “ns”.
